Values of other authors as cited in paper PMC6048117 (Scientific Reports, 2018).
Read-outs that look alike come from different tables or passages of the source.

What was measured:
[1] = tested on: nigral 6-OHDA partial or full lesion rat model

## lixisenatide
MPTP model; 10 nmol/kg
  Neuroprotection in MPTP model: did demonstrate neuroprotection

## liraglutide (HAEGTFTSDVSSYLEGQAAKEFIAWLVRGRG; chains of the INN, looked up) [GLP-1R agonist]
[1]
  Efficacy in nigral 6-OHDA partial or full lesion rat model: failed to demonstrate efficacy
MPTP model; 25 nmol/kg
  Neuroprotection in MPTP model: did demonstrate neuroprotection
